What all share (assay type): in vivo
Assay [1] has as its system L1 larvae of the Australian sheep blowfly (Lucilia cuprina). Nature of the assay: Lucilia cuprina test (LUCICU). As to conditions: application rate 100 ppm; minced horsemeat; after 2 days. The method, then: Lucilia cuprina Test (LUCICU) Solvent: dimethyl sulphoxide To produce a suitable preparation of active compound, 10 mg of active compound are mixed with 0.5 ml of dimethyl sulphoxide, and the concentrate is diluted with water to the desired concentration. About 20 L1 larvae of the Australian sheep blowfly (Lucilia cuprina) are transferred into a test vessel containing minced horsemeat and the active compound preparation of the desired concentration. After 2 days, the kill in % is determined. 100% means that all of the larvae have been killed; 0% means that none of the larvae have been killed.

The subject of assay [2] is larvae of the mustard beetle (Phaedon cochleariae). The assay can be described thus: Phaedon cochleariae spray test (PHAECO). As to conditions: Chinese cabbage leaf discs, after 7 days. The method, then:
Phaedon cochleariae—Spray Test (PHAECO)
(§1) Solvents: 78.0 parts by weight of acetone
(§2) • 1.5 parts by weight of dimethylformamide Emulsifier: alkylaryl polyglycol ether
(§3) To produce a suitable preparation of active compound, 1 part by weight of active compound is dissolved using the stated parts by weight of solvent and made up with water comprising an emulsifier concentration of 1000 ppm until the desired concentration is reached. To produce further test concentrations, the preparation is diluted with emulsifier-containing water.
After 7 days, the efficacy in % is determined. 100% means that all of the beetle larvae have been killed; 0% means that none of the beetle larvae have been killed.

In assay [3] the test system is engorged adult female cattle ticks (Boophilus microplus). Nature of the assay: Boophilus microplus injection test (BOOPMI Inj). As to conditions: application rate 20 μg/animal; injection into abdomen; assessed after 7 days. The method, then:
Boophilus microplus Injection Test (BOOPMI Inj)
Solvent: dimethyl sulphoxide
To produce a suitable preparation of active compound, 10 mg of active compound are mixed with 0.5 ml of solvent, and the concentrate is diluted with solvent to the desired concentration.
1 μl of the active compound solution is injected into the abdomen of 5 engorged adult female cattle ticks (Boophilus microplus). The animals are transferred into dishes and kept in a climate-controlled room.
The activity is assessed after 7 days by laying of fertile eggs. Eggs whose fertility is not visible from the outside are stored in a climate-controlled cabinet until the larvae hatch after about 42 days. An efficacy of 100% means that none of the ticks has laid any fertile eggs; 0% means that all eggs are fertile.

Assay [4] concerns adult cat fleas (Ctenocephalides felis). The assay can be described thus: Ctenocephalides felis oral test (CTECFE). As to conditions: application rate 100 ppm in citrated cattle blood; after 2 days. The method, then: Ctenocephalides felis-Oral Test ([…]) Solvent: dimethyl sulphoxide To produce a suitable preparation of active compound, 10 mg of active compound are mixed with 0.5 ml of dimethyl sulphoxide. Dilution with citrated cattle blood gives the desired concentration. About 20 unfed adult cat fleas (Ctenocephalides felis) are placed into a chamber which is closed at the top and bottom with gauze. A metal cylinder whose bottom end is closed with a parafilm is placed onto the chamber. The cylinder contains the blood/active ingredient preparation, which can be imbibed by the fleas through the parafilm membrane. After 2 days, the kill in % is determined. 100% means that all of the fleas have been killed; 0% means that none of the fleas have been killed.

Assay [5] concerns greenhouse red spider mite (Tetranychus urticae), OP-resistant. Nature of the assay: Tetranychus urticae spray test, OP-resistant (TETRUR). As to conditions: bean leaf discs, after 6 days. The method, then:
Tetranychus urticae—Spray Test, OP-Resistant (TETRUR)
as §1, §2, §3
Discs of bean leaves (Phaseolus vulgaris) which are infested by all stages of the greenhouse red spider mite (Tetranychus urticae) are sprayed with an active compound preparation of the desired concentration.
After 6 days, the efficacy in % is determined. 100% means that all of the spider mites have been killed; 0% means that none of the spider mites have been killed.

In assay [6] the test system is adult houseflies (Musca domestica). Nature of the assay: Musca domestica test (MUSCDO). As to conditions: application rate 100 ppm; after 2 days. The method, then: Musca domestica Test (MUSCDO) Solvents: dimethyl sulphoxide To produce a suitable preparation of active compound, 10 mg of active compound are mixed with 0.5 ml of dimethyl sulphoxide, and the concentrate is diluted with water to the desired concentration. Vessels containing a sponge treated with sugar solution and the active compound preparation of the desired concentration are populated with 10 adult houseflies (Musca domestica). After 2 days, the kill in % is determined. 100% means that all of the flies have been killed; 0% means that none of the flies have been killed.

Assay [7] concerns caterpillars of the armyworm (Spodoptera frugiperda). The assay can be described thus: Spodoptera frugiperda spray test (SPODFR). As to conditions: maize leaf discs, after 7 days. As to the method: Spodoptera frugiperda—Spray Test (SPODFR)
as §1, §2, §3
Leaf discs of maize (Zea mays) are sprayed with an active compound preparation of the desired concentration and, after drying, populated with caterpillars of the armyworm (Spodoptera frugiperda).
After 7 days, the efficacy in % is determined. 100% means that all of the caterpillars have been killed; 0% means that none of the caterpillars have been killed.

The structures appear in SMILES notation.

As for `CC(=O)NCc1cccc(-c2cn(-c3c(C(F)(F)F)c(C(F)(F)C(F)(F)F)nn3C)nn2)c1` [Ig-6], the kill in % in assay [1] and in assay [4] was 100% throughout. In assay [2] (application rate 100 g/ha), this molecule displayed an efficacy in % of 100%. Besides, the “efficacy (no laying of fertile eggs)” value in assay [3] came to 100%.

In the case of `CC(=O)NCc1cc(-c2ccn(-c3c(C(F)(F)F)c(C(F)(F)C(F)(F)F)nn3C)n2)ccc1F` [Id-4], the efficacy in % in assay [2] (application rate 100 g/ha) is 100%.

In assay [5] (application rate 100 g/ha), `Cn1nc(C(F)(F)C(F)(F)F)c(C(F)(F)F)c1-n1cc(-c2ccc(F)c(CNC(=O)c3cccnc3)c2)cn1` [Ic-15] displayed an efficacy in % of 100%. In addition, the “efficacy (no laying of fertile eggs)” value in assay [3] is recorded as 90%.

Turning to `Cn1nc(C(F)(F)C(F)(F)F)c(C(F)(F)F)c1-n1cc(-c2cccc(CNC(=O)C3CC3)c2)nn1` [Ig-2], the kill in % in assay [6], in assay [1] and in assay [4] was 100% throughout. For the same molecule, the efficacy in % in assay [2] (application rate 100 g/ha) is listed as 100%. The “efficacy (no laying of fertile eggs)” value in assay [3] stood at 100%.

As for `Cn1nc(C(F)(F)C(F)(F)F)c(C(F)(F)F)c1-n1cc(-c2ccc(F)c(CNC(=O)C(F)(F)F)c2)cn1` [Ic-6], the kill in % in assay [6] came out at 80%; in assay [1], 100%; in assay [4] it was 100%. In addition, the efficacy in % in assay [2] (application rate 100 g/ha) and in assay [5] (application rate 100 g/ha) was 100% each time. The “efficacy (no laying of fertile eggs)” value in assay [3] is recorded as 100%.

Take `Cn1nc(C(F)(F)C(F)(F)F)c(C(F)(F)F)c1-n1cnc(-c2ccc(F)c(CNC(=O)C3CC3)c2)c1` [Ib-7]: the efficacy in % in assay [2] (application rate 100 g/ha) is 100%.

Turning to `Cn1nc(C(F)(F)C(F)(F)F)c(C(F)(F)F)c1-n1cc(-c2ccc(F)c(CNC(=O)c3ccccc3)c2)cn1` [Ic-14], the efficacy in % came to 100% in assay [2] (application rate 100 g/ha) and 90% in assay [5] (application rate 100 g/ha). Moreover, the “efficacy (no laying of fertile eggs)” value in assay [3] stood at 100%.

For `Cn1nc(C(F)(F)C(F)(F)F)c(C(F)(F)F)c1-n1cc(-c2ccc(F)c(CNC(=O)c3cncnc3)c2)cn1` [Ic-27], the efficacy in % was 83% in assay [2] (application rate 100 g/ha) and 100% in assay [5] (application rate 100 g/ha). Moreover, the “efficacy (no laying of fertile eggs)” value in assay [3] came out at 100%. In addition, the kill in % in assay [4] came out at 90%.

Consider `CC(C)C(=O)NCc1cc(-c2cnn(-c3c(C(F)(F)F)c(C(F)(F)C(F)(F)F)nn3C)c2)ccc1F` [Ic-28], for which the efficacy in % in assay [7] (application rate 100 g/ha) and in assay [2] (application rate 100 g/ha) was 100% in each case. Also, the results for the kill in % in assay [1] and in assay [4] were 100% and 90%, respectively. The “efficacy (no laying of fertile eggs)” value in assay [3] turned out to be 100%.

Consider `CSC(C)C(=O)NCc1cc(-c2cnn(-c3c(C(F)(F)F)c(C(F)(F)C(F)(F)F)nn3C)c2)ccc1F` (stereo not shown) [Ic-30], for which the kill in % in assay [1] is on record as 100%; in assay [4] it was 95%. Moreover, the efficacy in % in assay [5] (application rate 100 g/ha) is 100%. The “efficacy (no laying of fertile eggs)” value in assay [3] is listed as 100%.

As for `Cn1nc(C(F)(F)C(F)(F)F)c(C(F)(F)F)c1-n1ccc(-c2ccc(F)c(CNC(=O)C3CC3)c2)n1` [Id-9], the figures for the efficacy in % in assay [7] (application rate 100 g/ha) and in assay [2] (application rate 100 g/ha) were 83% and 100%, respectively. The “efficacy (no laying of fertile eggs)” value in assay [3] is 90%.

On to `Cn1nc(C(F)(F)C(F)(F)F)c(C(F)(F)F)c1-n1cc(-c2ccc(F)c(CNC=O)c2)cn1` [Ic-19], for which the efficacy in % in assay [7] (application rate 500 g/ha) was 83%; in assay [2] (application rate 500 g/ha), 100%; in assay [5] (application rate 500 g/ha), 90%. Besides, the kill in % in assay [1] and in assay [4] was 100% in each case. In addition, the “efficacy (no laying of fertile eggs)” value in assay [3] was 100%.

For the molecule `CCC(=O)NCc1cc(-c2ccn(-c3c(C(F)(F)F)c(C(F)(F)C(F)(F)F)nn3C)n2)ccc1F` [Id-2], the efficacy in % in assay [7] (application rate 100 g/ha) and in assay [2] (application rate 100 g/ha) was 100% throughout. The kill in % in assay [1] stood at 90%; in assay [4], 80%. Also, the “efficacy (no laying of fertile eggs)” value in assay [3] stood at 90%.

On to `Cn1nc(C(F)(F)C(F)(F)F)c(C(F)(F)F)c1-n1cc(-c2ccc(F)c(CNC(=O)CC(F)(F)F)c2)cn1` [Ic-5], for which the kill in % in assay [6], in assay [1] and in assay [4] was 100% each time. Also, the efficacy in % in assay [7] (application rate 100 g/ha), in assay [2] (application rate 100 g/ha) and in assay [5] (application rate 100 g/ha) was 100% each time. For the same molecule, the “efficacy (no laying of fertile eggs)” value in assay [3] came to 100%.

Turning to `Cn1nc(C(F)(F)C(F)(F)F)c(C(F)(F)F)c1-n1cc(-c2cncc(CNC(=O)C3CC3)c2)cn1` [Ic-29], the efficacy in % in assay [2] (application rate 100 g/ha) was found to be 100%; in assay [5] (application rate 100 g/ha) it was 90%.

With `CCC(=O)NCc1cc(-c2cnn(-c3c(C(F)(F)F)c(C(F)(F)C(F)(F)F)nn3C)n2)ccc1F` [If-1], the kill in % was determined as 80% in assay [6], 100% in assay [1] and 100% in assay [4]. Further, the efficacy in % in assay [7] (application rate 100 g/ha) and in assay [2] (application rate 100 g/ha) was 100% throughout. The “efficacy (no laying of fertile eggs)” value in assay [3] turned out to be 100%.

Consider `CC(=O)NC(C)c1cccc(-c2cnn(-c3c(C(F)(F)F)c(C(F)(F)C(F)(F)F)nn3C)c2)c1` (stereo not shown) [Ic-31], for which the efficacy in % in assay [2] (application rate 100 g/ha) is 100%.

On to `CCC(=O)NCc1cccc(-c2ccn(-c3c(C(F)(F)F)c(C(F)(F)C(F)(F)F)nn3C)n2)c1` [Id-5], for which, in assay [2] (application rate 100 g/ha), the efficacy in % is listed as 100%.

Take `CC(NC(=O)C1CC1)c1cccc(-c2cnn(-c3c(C(F)(F)F)c(C(F)(F)C(F)(F)F)nn3C)c2)c1` (racemic) [Ic-21]: the efficacy in % was found to be 100% in assay [2] (application rate 100 g/ha) and 90% in assay [5] (application rate 100 g/ha).

For the molecule `CCC(=O)NCc1cccc(-c2cn(-c3c(C(F)(F)F)c(C(F)(F)C(F)(F)F)nn3C)nn2)c1` [Ig-4], the kill in % in assay [6], in assay [1] and in assay [4] was 100% throughout. Also, the efficacy in % amounted to 100% in assay [2] (application rate 100 g/ha) and 90% in assay [5] (application rate 100 g/ha). In addition, the “efficacy (no laying of fertile eggs)” value in assay [3] was determined as 100%.

With `Cn1nc(C(F)(F)C(F)(F)F)c(C(F)(F)F)c1-n1cc(-c2ccc(F)c(CNC(=O)C3CCOC3)c2)cn1` (racemic) [Ic-9], the kill in % in assay [1] and in assay [4] was 100% in each case. Also, the results for the efficacy in % in assay [2] (application rate 100 g/ha) and in assay [5] (application rate 100 g/ha) were 100% and 90%, respectively. Besides, in assay [3], the “efficacy (no laying of fertile eggs)” value was 100%.

Values taken from patent publication US9675070B2 (BAYER CROPSCIENCE AG, priority 2013, dated 2017).
